The subject of assay [1] is K562/VCR. Kind of assay: Antiproliferative activity against human K562/VCR cells after 72 hrs by CCK8 assay. Format: functional, cell-based. In general terms: Tetrazolium assays rely on reduction of a dye to a coloured formazan, in cell work by metabolically active cells.
For assay [2], the system named is K562. Kind of assay: Antiproliferative activity against human K562 cells after 72 hrs by CCK8 assay. Format: functional, cell-based. As to conditions: K562, 72 h.
Assay [3] can be described thus: Resistance factor, ratio of IC50 for human K562/VCR cells to IC50 for human K562 cells. The class given is functional.
Assay [4] concerns K562/Adr. Description: Antiproliferative activity against human K562/ADR cells after 72 hrs by CCK8 assay. Format: functional, cell-based.
Assay [5] relates to HL-60. Description: Cytotoxicity against human HL60 cells. Format: functional, cell-based.
For assay [6], the system named is K562/VCR. Kind of assay: Cell cycle arrest in human K562/VCR cells assessed as accumulation at G1 phase at 0.05 uM after 48 hrs by propidium iodide staining-based flow cytometric method (reference value: 46.20%). Format: functional. Background: A flow cytometer gives signals particle by particle.
For assay [7], the system named is K562/VCR. Description: Cell cycle arrest in human K562/VCR cells assessed as accumulation at S phase at 0.05 uM after 48 hrs by propidium iodide staining-based flow cytometric method (reference value: 46.02%). The class given is functional.
The test system of assay [8] is K562/VCR. Kind of assay: Cell cycle arrest in human K562/VCR cells assessed as accumulation at G2 phase at 0.05 uM after 48 hrs by propidium iodide staining-based flow cytometric method (reference value: 7.78%). Format: functional.
Assay [9] deals with K562/VCR. Description: Cell cycle arrest in human K562/VCR cells assessed as accumulation at G1 phase at 0.1 uM after 48 hrs by propidium iodide staining-based flow cytometric method (reference value: 46.20%). The class given is functional.
Assay [10] concerns K562/VCR. Kind of assay: Cell cycle arrest in human K562/VCR cells assessed as accumulation at S phase at 0.1 uM after 48 hrs by propidium iodide staining-based flow cytometric method (reference value: 46.02%). The class given is functional.
Assay [11] concerns K562/VCR. Description: Cell cycle arrest in human K562/VCR cells assessed as accumulation at G2 phase at 0.1 uM after 48 hrs by propidium iodide staining-based flow cytometric method (reference value: 7.78%). Format: functional.
Assay [12] concerns K562/VCR. Kind of assay: Induction of apoptosis in human K562/VCR cells assessed as early apoptotic cells at 0.05 uM after 48 hrs by annexin-V-FITC/propidium iodide staining-based flow cytometric method (reference value: 6.90%). Format: functional.
Assay [13] deals with K562/VCR. Description: Induction of apoptosis in human K562/VCR cells assessed as late apoptotic cells at 0.05 uM after 48 hrs by annexin-V-FITC/propidium iodide staining-based flow cytometric method (reference value: 1.90%). The class given is functional.
Assay [14] concerns K562/VCR. Description: Induction of apoptosis in human K562/VCR cells assessed as necrotic cells at 0.05 uM after 48 hrs by annexin-V-FITC/propidium iodide staining-based flow cytometric method (reference value: 0.15%). The class given is functional.
Assay [15] relates to K562/VCR. Kind of assay: Induction of apoptosis in human K562/VCR cells assessed as viable cells at 0.05 uM after 48 hrs by annexin-V-FITC/propidium iodide staining-based flow cytometric method (reference value: 91.05%). Format: functional. To be noted: read-out: Activity.
For assay [16], the system named is K562/VCR. Kind of assay: Induction of apoptosis in human K562/VCR cells assessed as early apoptotic cells at 0.1 uM after 48 hrs by annexin-V-FITC/propidium iodide staining-based flow cytometric method (reference value: 6.90%). Format: functional.
Assay [17] concerns K562/VCR. Description: Induction of apoptosis in human K562/VCR cells assessed as late apoptotic cells at 0.1 uM after 48 hrs by annexin-V-FITC/propidium iodide staining-based flow cytometric method (reference value: 1.90%). The class given is functional.
In assay [18] the test system is K562/VCR. Kind of assay: Induction of apoptosis in human K562/VCR cells assessed as necrotic cells at 0.1 uM after 48 hrs by annexin-V-FITC/propidium iodide staining-based flow cytometric method (reference value: 0.15%). Format: functional.
Assay [19] has as its system K562/VCR. Kind of assay: Induction of apoptosis in human K562/VCR cells assessed as viable cells at 0.1 uM after 48 hrs by annexin-V-FITC/propidium iodide staining-based flow cytometric method (reference value: 91.05%). Format: functional. To be noted: read-out: Activity.
The test system of assay [20] is K562/VCR. Description: Reduction in mitochondrial membrane potential in human K562/VCR cells at 0.1 uM after 48 hrs by JC1 probe-based flow cytometric method (reference value: 2.65%). Format: functional. Also on record: scale not given: the % may be the effect or the level left.
Assay [21] deals with K562/VCR. Kind of assay: Reduction in mitochondrial membrane potential in human K562/VCR cells at 0.05 uM after 48 hrs by JC1 probe-based flow cytometric method (reference value: 2.65%). Format: functional. Further details: scale not given: the % may be the effect or the level left.
The species named for assay [22] is Homo sapiens. Description: Inhibition of alpha-tubulin polymerization in human K562/VCR cells assessed as disruption of microtubule organization at 0.05 to 0.1 uM after 24 hrs by DAPI staining-based immunofluorescence assay. Format: cell-based.
The subject of assay [23] is K562/VCR. Description: Induction of reactive oxygen species formation in human K562/VCR cells at 0.05 uM after 24 hrs by DCFH-DA staining-based flow cytometric method (reference value: 0.41%). Format: functional.
The subject of assay [24] is K562/VCR. Kind of assay: Induction of reactive oxygen species formation in human K562/VCR cells at 0.1 uM after 24 hrs by DCFH-DA staining-based flow cytometric method (reference value: 0.41%). Format: functional.
For assay [25], the target named is T1, c-Jun N-terminal kinase, JNK (Homo sapiens) (UniProt P45983+P53779+P45984). Description: Induction of JNK phosphorylation in human K562/VCR cells at 0.05 uM after 48 hrs by Western blot method relative to beta-actin. The class given is cell-based. Background: Immunoblotting shows a protein as a band on a membrane.
In assay [26] the target is T1, c-Jun N-terminal kinase, JNK (Homo sapiens). Kind of assay: Induction of JNK phosphorylation in human K562/VCR cells at 0.1 uM after 48 hrs by Western blot method relative to beta-actin. Format: cell-based.
In assay [27] the target is RAC-alpha serine/threonine-protein kinase (Homo sapiens) (UniProt P31749). Description: Inhibition of AKT phosphorylation in human K562/VCR cells at 0.05 uM after 48 hrs by Western blot method relative to beta-actin. The class given is cell-based.
The target is the same in assay [28]. Description: Inhibition of AKT phosphorylation in human K562/VCR cells at 0.1 uM after 48 hrs by Western blot method relative to beta-actin. The class given is cell-based.
The subject of assay [29] is K562/VCR. Description: Induction of apoptosis in human K562/VCR cells assessed as downregulation of CDK1 expression at 0.05 uM after 48 hrs by Western blot method relative to beta-actin. Format: functional.
For assay [30], the system named is K562/VCR. Kind of assay: Induction of apoptosis in human K562/VCR cells assessed as downregulation of CDK1 expression at 0.1 uM after 48 hrs by Western blot method relative to beta-actin. The class given is functional.
The subject of assay [31] is K562/VCR. Kind of assay: Induction of apoptosis in human K562/VCR cells assessed as downregulation of CDK2 expression at 0.05 uM after 48 hrs by Western blot method relative to beta-actin. The class given is functional.
For assay [32], the system named is K562/VCR. Description: Induction of apoptosis in human K562/VCR cells assessed as downregulation of CDK2 expression at 0.1 uM after 48 hrs by Western blot method relative to beta-actin. Format: functional.
The test system of assay [33] is K562/VCR. Description: Induction of apoptosis in human K562/VCR cells assessed as upregulation of cleaved PARP expression at 0.05 uM after 48 hrs by Western blot method relative to beta-actin. The class given is functional.
Assay [34] concerns K562/VCR. Kind of assay: Induction of apoptosis in human K562/VCR cells assessed as upregulation of cleaved PARP expression at 0.1 uM after 48 hrs by Western blot method relative to beta-actin. Format: functional.
The subject of assay [35] is K562/VCR. Description: Downregulation of P-gp expression in human K562/VCR cells at 0.05 uM after 48 hrs by Western blot method relative to beta-actin. Format: functional.
In assay [36] the test system is K562/VCR. Kind of assay: Downregulation of P-gp expression in human K562/VCR cells at 0.1 uM after 48 hrs by Western blot method relative to beta-actin. Format: functional.
Assay [37] concerns K562/VCR. Description: Downregulation of MRP-1 expression in human K562/VCR cells at 0.05 uM after 48 hrs by Western blot method relative to beta-actin. Format: functional.
The test system of assay [38] is K562/VCR. Kind of assay: Downregulation of MRP-1 expression in human K562/VCR cells at 0.1 uM after 48 hrs by Western blot method relative to beta-actin. Format: functional.
Assay [39] relates to K562/VCR. Description: Induction of autophagy in human K562/VCR cells assessed as upregulation of beclin-1 expression at 0.05 uM after 48 hrs by Western blot method relative to beta-actin. Format: functional.
For assay [40], the system named is K562/VCR. Kind of assay: Induction of autophagy in human K562/VCR cells assessed as upregulation of beclin-1 expression at 0.1 uM after 48 hrs by Western blot method relative to beta-actin. The class given is functional.
Assay [41] has as its system K562/VCR. Kind of assay: Induction of autophagy in human K562/VCR cells assessed as upregulation of LC3-2 expression at 0.05 uM after 48 hrs by Western blot method relative to beta-actin. The class given is functional.
For assay [42], the system named is K562/VCR. Kind of assay: Induction of autophagy in human K562/VCR cells assessed as upregulation of LC3-2 expression at 0.1 uM after 48 hrs by Western blot method relative to beta-actin. The class given is functional.

Activity calls are given as the source filed them. The rule behind the calls is not given here.

As usually defined, the IC50 is the concentration at which inhibition is half-maximal.

RAC-alpha serine/threonine-protein kinase (Homo sapiens), sequence (P31749 whole entry): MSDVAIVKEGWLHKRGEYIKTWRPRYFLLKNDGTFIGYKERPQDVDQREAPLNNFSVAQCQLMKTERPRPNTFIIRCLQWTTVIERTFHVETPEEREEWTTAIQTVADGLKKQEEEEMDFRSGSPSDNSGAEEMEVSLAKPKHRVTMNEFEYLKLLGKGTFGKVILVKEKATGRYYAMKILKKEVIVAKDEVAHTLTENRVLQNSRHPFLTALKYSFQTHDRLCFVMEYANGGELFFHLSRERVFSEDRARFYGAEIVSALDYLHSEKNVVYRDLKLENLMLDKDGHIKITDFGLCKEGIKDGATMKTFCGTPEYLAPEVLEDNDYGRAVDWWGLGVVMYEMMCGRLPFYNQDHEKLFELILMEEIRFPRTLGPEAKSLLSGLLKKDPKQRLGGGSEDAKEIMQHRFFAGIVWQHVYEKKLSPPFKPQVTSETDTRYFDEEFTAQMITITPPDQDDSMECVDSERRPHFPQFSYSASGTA

Take `COc1cc([C@@H]2c3cc4c(cc3[C@H](OC(=O)CCCCCN3C(=O)/C(=C5\Nc6ccccc6C5=O)c5ccccc53)[C@H]3COC(=O)[C@H]23)OCO4)cc(OC)c1OC`: the concentration for half-maximal inhibition (IC50) was 85700 nM in [1] and 17000 nM in assay [2]. Moreover, the “Ratio IC50” value in assay [3] was 5.02.
In the case of `COc1cc([C@@H]2c3cc4c(cc3[C@H](OC(=O)CN3C(=O)C(=O)c5c(Br)cccc53)[C@H]3COC(=O)[C@H]23)OCO4)cc(OC)c1OC`, in [4], the concentration for half-maximal inhibition (IC50) came to 67 nM.
`COc1cc([C@@H]2c3cc4c(cc3[C@@H](O[C@@H]3O[C@@H]5CO[C@@H](C)O[C@H]5[C@H](O)[C@H]3O)[C@H]3COC(=O)[C@H]23)OCO4)cc(OC)c1O` [ETOPOSIDE]: the IC50 in assay [1] stood at 11800 nM; in assay [2] it was 764 nM. In addition, the “Ratio IC50” value in [3] is listed as 15.49.
`CN(C)CCN1C(=O)/C(=C2\Nc3ccccc3C2=O)c2ccccc21` registered an IC50 in assay [5] of 3560 nM.
On to `COc1cc([C@@H]2c3cc4c(cc3[C@H](OC(=O)CN3C(=O)/C(=C5\Nc6ccccc6C5=O)c5ccccc53)[C@H]3COC(=O)[C@H]23)OCO4)cc(OC)c1OC`, for which the IC50 was 76 nM in [1] and 34 nM in assay [2]. Further, the “Ratio IC50” value in assay [3] is 2.23. The Activity in assay [6] is on record as 23.26%; in assay [7], 29.81%; in assay [8], 46.93%; in [9], 17.33%; in assay [10], 25.7%; in assay [11], 56.97%. Moreover, the Activity is given as 13.48% in [12]; 9.61% in assay [13]; 0.07% in assay [14]; 28.58% in assay [16]; 18.91% in assay [17]; 0.1% in assay [18]. Further, the Activity was 40.38% in [20], 19.44% in [21], 24.27% in assay [23] and 39.84% in assay [24]. Further, the viability at 0.05 µM in assay [15] was 76.8%. For the same compound, the viability at 0.1 µM in assay [19] was 52.4%. For the same compound, in [22], the inhibition result was “Active”. The fold change (FC) was 0.7 in [25]; 0.84 in [26]; 0.6 in [27]; 0.43 in [28]; 0.44 in assay [29]; 0.32 in assay [30]. Besides, the “fold change (FC)” value was found to be 0.44 in [31]; 0.36 in assay [32]; 0.46 in assay [33]; 0.56 in assay [34]; 0.4 in assay [35]; 0.33 in assay [36]. In addition, the “fold change (FC)” value in [37] came out at 0.31; in assay [38] it was 0.24; in [39], 0.52; in [40], 0.6; in [41], 0.78; in [42], 0.63.

(Values after ChEMBL document CHEMBL4118137, “Design, synthesis and antineoplastic activity of novel hybrids of podophyllotoxin and indirubin against human leukaemia cancer cells as multifunctional anti-MDR agents” (Bioorg Med Chem Lett, 2018).)
